The values that follow are results of earlier work, collected in US6440942B1, “14-membered macrolides derived from leucomycins” (Enanta Pharmaceuticals, Inc., priority 2000, dated 2002).

Like-named read-outs stand apart in the source and are kept apart here.

The conditions of series [1]: for in vitro potency relative to the parent compound: main metabolites of rokitamycin, parent compound = rokitamycin; for antimicrobial activity: josamycin metabolites isolated from urine and plasma of adults given oral josamycin.
The conditions of series [2]: dogs; compared with other 4″-O-butyryl derivatives.
For series [3] the following is noted: monkeys; compared with other 4″-O-butyryl derivatives.

As to “4″-debutyryl leucomycin A5 [leucomycin V]”, in series [1], the “in vitro potency relative to the parent compound” value is reported as “one-tenth”. For 5-hydroxyjosamycin, in series [1], the antimicrobial activity result is “poor”.

In the case of `CCC(=O)O[C@H]1[C@H](C)O[C@@H](O[C@H]2[C@H](N(C)C)[C@@H](O)[C@H](O[C@H]3[C@@H](CC=O)C[C@@H](C)[C@@H](O)/C=C/C=C/C[C@@H](C)OC(=O)C[C@@H](O)[C@@H]3OC)O[C@@H]2C)C[C@@]1(C)O` [Leucomycin A7], the “in vitro potency relative to the parent compound” value in series [1] is “one-half”.

As to `COC1C(O)CC(=O)OC(C)CC=CC=CC(=O)C(C)CC(CC=O)C1OC1OC(C)C(OC2CC(C)(O)C(OC(=O)CC(C)C)C(C)O2)C(N(C)C)C1O` (stereo not drawn) [Niddamycin], the “antibacterial activity in vitro” value in the series with Mycoplasma spp. and in the series on Gram-positive bacteria was “good” in each case. On to `COC1C(OC(C)=O)CC(=O)OC(C)CC=CC=CC(O)C(C)CC(CC=O)C1OC1OC(C)C(OC2CC(C)(O)C(O)C(C)O2)C(N(C)C)C1O` (stereo not drawn) [desisovaleryl josamycin], for which the antimicrobial activity result in series [1] is “inactive”. For the compound `CCCC(=O)O[C@H]1[C@H](C)O[C@@H](O[C@H]2[C@H](N(C)C)[C@@H](O)[C@H](O[C@H]3[C@@H](CC=O)C[C@@H](C)[C@@H](O)/C=C/C=C/C[C@@H](C)OC(=O)C[C@@H](O)[C@@H]3OC)O[C@@H]2C)C[C@@]1(C)OC(=O)CC` [rokitamycin, 3″-O-propionyl leucomycin A5], the “activity among 4″-O-butyryl derivatives” value in series [1] (compared with other 3″-O-acyl leucomycin A5 derivatives) is “most active”. Moreover, the “in vitro activity against Gram-negative bacteria relative to leucomycin A5, josamycin and midecamycin” value in the series on Gram-negative bacteria was “twice as high”. In addition, the serum levels result in series [2] and in series [3] was “highest” in each case. Turning to demycarosyl josamycin, in series [1], the antimicrobial activity entry is “inactive”.

As for β-hydroxyisovaleryl josamycin, in series [1], the antimicrobial activity result was “poor”.
